Source: patent US9365489B2, “Nitrooxy alkanoic acids and derivatives thereof in feed for reducing methane emission in ruminants, and/or to improve ruminant performance” (priority 2009, dated 2016)
Marks after values point to notes of the source that are not given here.

Key:
[1] = test system: rumen fermentation parameters; test: In vivo test: rumen volatile fatty acids and ammonia nitrogen; conditions: rumen of sheep; for iso-valeric (VFA profile): control 1.60; for Valeric (VFA profile): control 1.69; for Butiric (VFA profile): control 3.69; for C2/C3 (acetate to propionate ratio): control 4.59; for iso-butiric (VFA profile): control 6.73; for Propionic (VFA profile): control 15.7; for NH3—N (ammonia Nitrogen concentration): control 42.5; for Acetic (VFA profile): control 70.6; for Total volatile fatty acid concentration: control 111.3
Source text: (§1) The experimental design consisted of a cross-over design with 2 sheep per treatment in each period. The trial consisted in 3 consecutive periods of: 14 days of adaptation to the dose plus three consecutive days of methane measurements in chambers. This 14 days adaptation phase was established as the period necessary for wash out between different doses assayed in consecutive periods. During the last two days of methane measurements in chambers rumen contents samples were collected two hours after the morning feeding, sub sampled and immediately frozen prior DNA extraction and determination of volatile fatty acids and ammonia nitrogen concentration. Experimental animals were randomly allocated in three sub-groups of 2 animals and were assigned one of the three treatments (control, dose 1 and dose 2). The 3 sub-groups started the adaptation period with a gap of three days so they had the same number of adaptation days prior to methane measurement in the chambers. Each animal was held in cages with constant access to fresh water. The diet provided to the animals consisted of alfalfa hay chopped at 15 to 20 cm and concentrate in a proportion 1:1 at approximately 1.1 times the energy requirements maintenance level (Prieto et al, 1990) plus mineral-vitamin supplement. Fresh matter intake was monitored daily for each animal throughout the trial. The diet was provided to animals in two equal meals at 9.00 h and 14.00 h.
The additive was provided twice a day through the ruminal cannula at the same time as the diet. The corresponding amount to each dose was added into 10 grams of grounded concentrate and wrapped in cellulose paper immediately before it was placed in the rumen. In order to avoid the volatility of the active molecule, both additives were kept in a cold room at 4° C. where the daily process of dispensing it in the cellulose bags was carried out.
The doses were 50 (dose 1) and 500 (dose 2) mg/animal per day. The higher dose was reached after 3 days of gradual increases (50, 200 and 500 mg), so the whole adaptation period was consequently extended for 3 more days.
Volatile fatty acids were analysed by gas chromatography and ammonia N concentration by colorimetry according to (Cantalapiedra-Híjar et al. Journal of Animal Science. 87, 622-631, 2009).
Individual methane emissions, VFA profiles, ratio of acetate to propionate, ammonia N concentration, and log10 transformations of concentration of total bacteria, total protozoa and methanogenic archaea were analyzed for the following effects: additive dose, day of measurement, and their interaction using a repeated measures analysis of variance under the cross-over design arrangement of the experiment. The standard error of the mean (SEM) was computed for each analysis. No significant effect of the measuring day or its interaction with additive dose was detected in either experiments, so only the effect of the dose is included in the tables. Means were further compared using a least significant difference (LSD) procedure. The SPSS for Windows, version 14.0 (2005; SPSS Inc., Chicago, Ill.) was used for data entry and statistical analysis.

[2] = test system: total bacteria (16SrRNA); test: In vivo test: qPCR of total bacteria in rumen contents; conditions: rumen of sheep; for Total bacteria concentration: control 1.19 × 10^9; for Total bacteria, log10: control 9.03
Source text: as §1
(§2) Samples of rumen contents were freeze-dried and thoroughly mixed by physical disruption using a bead beater (Mini-bead Beater; BioSpec Products, Bartlesville, Okla., USA) before DNA extraction, which was performed from approximately 50 mg sample using the QIAamp® DNA Stool Mini Kit (Qiagen Ltd, West Sussex, UK) following the manufacturer's instructions with the modification that a higher temperature (95° C.) was used for lysis incubation. DNA samples were used as templates for quantitative real-time PCR (qPCR) amplification. The numbers of total bacteria, total protozoa and total methanogenic archaea were quantified by Real Time—PCR (qPCR).
(§3) Different primer sets were used to amplify 16S rRNA gene-targeted total bacteria (Maeda et al. FEMS Inmunology and Medical Microbiology 39, 81-86, 2003), and protozoa (Sylvester et al. Journal Dairy Science. 88, 2083-2095 2005). […] The amplification efficiency was evaluated for each pair of primers with the following program: 5 min cycle at 95° C., 40 cycles at 95° C. for 15 s, 60° C. for 30 s, 72° C. for 55 s and, 75° C. during 6 s for fluorescent emission measures. The melting curve was built by increasing temperature from 55° C. to 95° C. and reading were taken every 5° C. […] The absolute amount of bacteria, protozoa and methanogenic archaea expressed as the number of DNA copies, was determined by using standards. […]

[3] = test system: methanogenic archaea; test: In vivo test: qPCR of methanogenic archaea in rumen contents; conditions: rumen of sheep; for Methanogenic archaea, log10: control 3.59; for Methanogenic archaea concentration: control 5.60 × 10^3
Source text: as §1, §2, §3

Structure (SMILES): CCOC(=O)CCO[N+](=O)[O-] [Ethyl-3-nitrooxy propionate]
- iso-valeric (VFA profile) ([1]; Dose 1 (50 mg/animal per day)): 1.50 mol/100 mol
- Valeric (VFA profile) ([1]; Dose 1 (50 mg/animal per day)): 1.55^a mol/100 mol
- Butiric (VFA profile) ([1]; Dose 1 (50 mg/animal per day)): 3.50 mol/100 mol
- C2/C3 (acetate to propionate ratio) ([1]; Dose 1 (50 mg/animal per day)): 4.26^ab
- iso-butiric (VFA profile) ([1]; Dose 1 (50 mg/animal per day)): 5.57^a mol/100 mol
- Propionic (VFA profile) ([1]; Dose 1 (50 mg/animal per day)): 16.8^ab mol/100 mol
- NH3—N (ammonia Nitrogen concentration) ([1]; Dose 1 (50 mg/animal per day)): 40.5 mg/100 ml
- Acetic (VFA profile) ([1]; Dose 1 (50 mg/animal per day)): 71.0^a mol/100 mol
- Total volatile fatty acid concentration ([1]; Dose 1 (50 mg/animal per day)): 123.3^a mmol/l
- iso-valeric (VFA profile) ([1]; Dose 2 (500 mg/animal per day)): 1.76 mol/100 mol
- Valeric (VFA profile) ([1]; Dose 2 (500 mg/animal per day)): 2.42^b mol/100 mol
- Butiric (VFA profile) ([1]; Dose 2 (500 mg/animal per day)): 3.47 mol/100 mol
- C2/C3 (acetate to propionate ratio) ([1]; Dose 2 (500 mg/animal per day)): 3.57^b
- iso-butiric (VFA profile) ([1]; Dose 2 (500 mg/animal per day)): 8.06^b mol/100 mol
- Propionic (VFA profile) ([1]; Dose 2 (500 mg/animal per day)): 18.8^b mol/100 mol
- NH3—N (ammonia Nitrogen concentration) ([1]; Dose 2 (500 mg/animal per day)): 40.1 mg/100 ml
- Acetic (VFA profile) ([1]; Dose 2 (500 mg/animal per day)): 65.5^b mol/100 mol
- Total volatile fatty acid concentration ([1]; Dose 2 (500 mg/animal per day)): 104.1^b mmol/l
- Total bacteria concentration ([2]; Dose 1 (50 mg/animal per day)): 1.43 × 10^9 copy gene numbers/g fresh matter
- Total bacteria, log10 ([2]; Dose 1 (50 mg/animal per day)): 9.08 log10
- Total bacteria concentration ([2]; Dose 2 (500 mg/animal per day)): 1.63 × 10^9 copy gene numbers/g fresh matter
- Total bacteria, log10 ([2]; Dose 2 (500 mg/animal per day)): 9.18 log10
- Methanogenic archaea, log10 ([3]; Dose 1 (50 mg/animal per day)): 3.57 log10
- Methanogenic archaea concentration ([3]; Dose 1 (50 mg/animal per day)): 5.43 × 10^3 copy gene numbers/g fresh matter
- Methanogenic archaea, log10 ([3]; Dose 2 (500 mg/animal per day)): 3.45 log10
- Methanogenic archaea concentration ([3]; Dose 2 (500 mg/animal per day)): 4.34 × 10^3 copy gene numbers/g fresh matter
